The record followed here is patent US20090149452A1, “XANTHINE OXIDASE INHIBITOR” (NIPPON CHEMIPHAR CO., LTD., priority 2005, published 2009).

Structures are written as SMILES. Some results are limits rather than exact numbers.

Data set [1] concerns the target T1, Cow milk Xanthine Oxidase (Bos taurus, UniProt P80457).
T1 construct: Cow milk Xanthine Oxidase (Roche); purchased Roche; host or cells: cow milk
The experiment in a line: In vitro xanthine oxidase inhibition (oxidation of xanthine, absorbance at OD 290 nm). It is filed as biochemical. As to conditions: xanthine 250 μM, 50 mM phosphate buffer pH 7.5, 30° C. 10 minutes. As to the method:
The xanthine oxidase inhibiting action (in vitro test) of the compound of the invention was confirmed by measuring inhibition of oxidation of xanthine by xanthine oxidase, as described in Example 26. As is clear from Tables 11 and 12, the compounds of the invention show excellent xanthine oxidase inhibiting action.
The test compound was dissolved in dimethylsulfoxide and diluted with 50 mM phosphate buffer (pH 7.5), to give a solution of a predetermined concentration.
125 μL of each of the solutions of the test compound having different concentrations was added to 1 mL of a solution of Xanthine (SIGMA, 250 μM) in the 50 mM phosphor buffer (pH 7.5). The mixture was then pre-incubated at 30° C. for 5 min. Subsequently, to the pre-incubated mixture was added 125 μL of Cow milk Xanthine Oxidase (Roche) diluted with the 50 mM phosphate buffer (pH 7.5) to 70 mU/mL, and the mixture was subjected to reaction at 30° C. for 10 minutes. Then, 1N hydrochloric acid (200 μL) was added to the reaction mixture to terminate the reaction. Subsequently, absorbance at OD 290 nm was measured by means of a spectrophotometer (Shimadzu UV-160A), to obtain a inhibition ratio. The measured inhibition ration was used to obtain IC50.
The inhibition ratio was calculated according to the following formula:
Inhibition ratio (%)=[1−(B−C)/(A−C)]×100 • A: absorbance of control • B: absorbance measured on a sample containing test compound • C: absorbance of blank

Data set [2] relates to in-plasma uric acid value. The experiment in a line: In vivo test: in-plasma uric acid value-inhibition ratio after single oral administration to mouse. The note with it: in-plasma uric acid inhibition ratio as activity value relative to TMX-67 (0.3 mg/kg); unfasted ICR mouse, single oral 0.3 mg/kg or 3 mg/kg, blood one hour after administration. The procedure: The xanthine oxidase inhibiting action was further confirmed in viva tests by measuring the uric acid concentration in a plasma obtained from mouse into which the compound of the invention had been orally administered. See Example 27 and Tables 11 and 12. The test compound suspended in 1% methylcellulose solution in an amount of 0.3 mg/kg or 3 mg/kg was administered to unfasted ICR mouse (7 W) by forced single oral administration. The blood was collected from main artery from the mouse under etherization after one hour from the administration. The plasma was separated from the collected blood in the conventional manner. The plasma was then subjected to measurement of uric acid value by the enzyme method by means of an automatic analytical apparatus ([…]), to obtain an in-plasma uric acid value-inhibition ratio in the test sample-administered group as compared with a ratio obtained in the normal group. Based on the obtained in-plasma uric acid inhibition ratio, activity values (%) relative to activity values obtained in the simultaneously conducted tests using TMX-67 (0.3 mg/kg).

T1 sequence (P80457 whole entry): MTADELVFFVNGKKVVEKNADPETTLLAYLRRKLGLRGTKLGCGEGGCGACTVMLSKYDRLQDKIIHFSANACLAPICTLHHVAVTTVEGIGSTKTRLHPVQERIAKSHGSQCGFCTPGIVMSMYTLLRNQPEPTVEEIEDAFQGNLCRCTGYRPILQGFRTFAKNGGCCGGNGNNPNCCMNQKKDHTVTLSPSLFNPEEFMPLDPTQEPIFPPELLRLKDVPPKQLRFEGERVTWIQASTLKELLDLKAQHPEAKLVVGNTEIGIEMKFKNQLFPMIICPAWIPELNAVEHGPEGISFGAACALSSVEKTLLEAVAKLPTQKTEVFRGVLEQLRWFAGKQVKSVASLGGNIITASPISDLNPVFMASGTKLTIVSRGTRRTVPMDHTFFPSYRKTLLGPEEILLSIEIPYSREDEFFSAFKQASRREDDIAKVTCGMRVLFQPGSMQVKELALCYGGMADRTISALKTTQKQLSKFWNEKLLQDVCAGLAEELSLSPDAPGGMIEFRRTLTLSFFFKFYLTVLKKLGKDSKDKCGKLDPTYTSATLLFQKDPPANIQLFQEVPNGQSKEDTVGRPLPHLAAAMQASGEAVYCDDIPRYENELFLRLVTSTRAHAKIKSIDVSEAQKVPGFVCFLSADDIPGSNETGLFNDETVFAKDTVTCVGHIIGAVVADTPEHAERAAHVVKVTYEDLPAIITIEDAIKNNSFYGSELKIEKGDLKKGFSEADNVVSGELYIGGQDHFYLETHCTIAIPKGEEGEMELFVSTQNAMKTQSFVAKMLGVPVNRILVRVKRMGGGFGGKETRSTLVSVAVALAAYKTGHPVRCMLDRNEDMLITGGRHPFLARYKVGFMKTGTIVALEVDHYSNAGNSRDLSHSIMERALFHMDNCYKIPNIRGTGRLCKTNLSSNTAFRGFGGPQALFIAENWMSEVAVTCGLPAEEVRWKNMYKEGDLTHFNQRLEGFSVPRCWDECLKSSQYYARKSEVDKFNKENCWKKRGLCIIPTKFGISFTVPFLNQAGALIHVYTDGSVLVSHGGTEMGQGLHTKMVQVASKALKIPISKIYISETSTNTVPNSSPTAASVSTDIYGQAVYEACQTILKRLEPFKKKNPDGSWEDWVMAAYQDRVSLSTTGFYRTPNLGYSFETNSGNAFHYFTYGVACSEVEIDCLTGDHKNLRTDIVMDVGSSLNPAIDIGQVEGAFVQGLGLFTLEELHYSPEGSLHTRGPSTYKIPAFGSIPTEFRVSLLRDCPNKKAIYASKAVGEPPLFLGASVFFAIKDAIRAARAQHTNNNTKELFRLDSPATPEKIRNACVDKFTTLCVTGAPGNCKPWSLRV

In turn, `N#Cc1cc(-c2nc3cncnc3s2)ccc1Oc1ccc(F)cc1` [Example 1, 2-[4-(4-fluorophenoxy)-3-cyanophenyl]thiazolo[5,4-d]pyrimidine] gave a melting point of 175 to 177 °C. In addition, inhibition in data set [1] was half-maximal at 280 nM (IC50). For the same molecule, the “In Vivo (%) TMX-67 (0.3 mg/kg)” value in data set [2] was determined as 132%.
Molecule `N#Cc1cc(-c2nc3cncnc3s2)ccc1Oc1ccccc1` [Example 2, 2-[3-Cyano-4-phenoxyphenyl)thiazolo[5,4-d]-pyrimidine] gave a melting point of 154 to 156 °C. Besides, the IC50 in data set [1] is 139 nM. The “In Vivo (%) TMX-67 (0.3 mg/kg)” value in data set [2] is recorded as 114%.
In the case of `N#Cc1cc(-c2nc3cncnc3s2)ccc1Oc1cccnc1` [Example 3, 2-[3-Cyano-4-(3-pyridyloxy)phenyl]thiazolo-[5,4-d]pyrimidine], the melting point fell in the range of 210 to 212 °C. In addition, inhibition in data set [1] was half-maximal at 273 nM (IC50). In addition, the “In Vivo (%) TMX-67 (0.3 mg/kg)” value in data set [2] came to 90%.
Turning to `N#Cc1cc(-c2nc3cncnc3[nH]2)ccc1Oc1ccc(F)cc1` [Example 4, 8-[3-Cyano-4-(4-fluorophenoxy)phenyl]-9H-purine], the melting point is > 250 °C. The molecule further gave an IC50 in data set [1] of 33 nM. Moreover, in data set [2], the “In Vivo (%) TMX-67 (0.3 mg/kg)” value was 33%.
`N#Cc1cc(-c2nc3cncnc3s2)ccc1Oc1ccccc1F` [Example 5, 2-[3-Cyano-4-(2-fluorophenoxy)phenyl]-thiazolo[5,4-d]pyrimidine] gave a melting point of 195 to 196 °C. In data set [1], this molecule gave an IC50 of 103 nM. The “In Vivo (%) TMX-67 (0.3 mg/kg)” value in data set [2] was determined as 141%.
In the case of `N#Cc1cc(-c2nc3cncnc3s2)ccc1Oc1cccc(F)c1` [Example 6, 2-[3-Cyano-4-(3-fluorophenoxy)phenyl]-thiazolo[5,4-d]pyrimidine], the melting point was 189 to 190 °C. Also, the IC50 in data set [1] came out at 389 nM. Moreover, the “In Vivo (%) TMX-67 (0.3 mg/kg)” value in data set [2] was 127%.
Take `N#Cc1cc(-c2nc3cncnc3s2)ccc1Sc1ccc(F)cc1` [Example 7, 2-[3-Cyano-4-(4-fluorophenylthio)phenyl]-thiazolo[5,4-d]pyrimidine]: the melting point lay within 190 to 195 °C. In addition, in data set [1], the IC50 is 239 nM. For the same molecule, the “In Vivo (%) TMX-67 (0.3 mg/kg)” value in data set [2] turned out to be 109%.
The corresponding values for `N#Cc1cc(-c2nc3cncnc3s2)ccc1Oc1ccccc1O` [Example 8, 2-[3-Cyano-4-(2-hydroxyphenoxy)phenyl]thiazolo[5,4-d]pyrimidine] are 255 to 256 °C, 103 nM and 52%.
The molecule `N#Cc1cc(-c2nc3cncnc3s2)ccc1Oc1ccc(Cl)cc1` [Example 9, 2-[4-(4-Chlorophenyloxy)-3-cyanophenyl]-thiazolo[5,4-d]pyrimidine] showed a melting point of 179 to 180 °C. The midpoint of inhibition in data set [1], the IC50, lay at 298 nM. For the same molecule, the “In Vivo (%) TMX-67 (0.3 mg/kg)” value in data set [2] was 120%.
`N#Cc1cc(-c2nc3cncnc3s2)ccc1Sc1ccccc1F` [Example 10, 2-[3-Cyano-4-(2-fluorophenylthio)phenyl]-thiazolo[5,4-d]pyrimidine] returned a melting point of 178 to 180 °C. The molecule also came in with an IC50 in data set [1] of 127 nM. Besides, the “In Vivo (%) TMX-67 (0.3 mg/kg)” value in data set [2] worked out at 115%.
Molecule `N#Cc1cc(-c2nc3cncnc3s2)ccc1Sc1ccccc1` [Example 11, 2-(3-Cyano-4-phenylthiophenyl)thiazolo[5,4-d]pyrimidine] came in with a melting point of 173 to 176 °C. The molecule further registered a half-maximal inhibitory concentration (IC50) in data set [1] of 196 nM. Also, the “In Vivo (%) TMX-67 (0.3 mg/kg)” value in data set [2] was 110%.
`C=CCOc1ccc(-c2nc3cncnc3s2)cc1C#N` [Example 12, 2-(4-Allyloxy-3-cyanophenyl)thiazolo[5,4-d]-pyrimidine]: the melting point lay within 202.6 to 207.6 °C. In data set [1], this molecule came in with an IC50 of 310 nM. Also, the “In Vivo (%) TMX-67 (0.3 mg/kg)” value in data set [2] is 52%.
For `N#Cc1cc(-c2nc3cncnc3s2)ccc1N1CCOCC1` [Example 13, 2-(3-Cyano-4-morpholin-4-ylphenyl)thiazolo-[5,4-d]pyrimidine], the melting point is 232 to 234 °C (dec.). In data set [2], the “In Vivo (%) TMX-67 (0.3 mg/kg)” value is 40%.
For `CN1CCN(c2ccc(-c3nc4cncnc4s3)cc2C#N)CC1` [Example 14, 2-[3-Cyano-4-(4-methyl-1-piperazinyl)phenyl]thiazolo[5,4-d]pyrimidine], the melting point was 163 to 165 °C (dec.). Besides, the “In Vivo (%) TMX-67 (0.3 mg/kg)” value in data set [2] is listed as 43%.
For `N#Cc1cc(-c2nc3cncnc3s2)ccc1Oc1cccc(Cl)c1` [Example 15, 2-[4-(3-Chlorophenyloxy)-3-cyanophenyl]-thiazolo[5,4-d]pyrimidine] the same measures were 171 to 173 °C and 87%.
The corresponding values for `N#Cc1cc(-c2nc3cncnc3s2)ccc1N1CCSCC1` [Example 16, 2-[3-Cyano-4-(thiomorpholin-4-yl)phenyl]-thiazolo[5,4-d]pyrimidine] are 170 to 175 °C (dec.) and 34%.
Regarding `N#Cc1cc(-c2nc3cncnc3s2)ccc1Oc1ccccc1Cl` [Example 17, 2-[4-(2-Chlorophenyloxy)-3-cyanophenyl]thiazolo[5,4-d]pyrimidine], the melting point lay within 209 to 211 °C. Moreover, in data set [2], the “In Vivo (%) TMX-67 (0.3 mg/kg)” value is 86%.
Regarding `N#Cc1cc(-c2nc3cncnc3o2)ccc1Oc1ccc(F)cc1` [Example 18, 2-[3-Cyano-4-(4-fluorophenoxy)phenyl]oxazolo[5,4-d]-pyrimidine], the “In Vivo (%) TMX-67 (0.3 mg/kg)” value in data set [2] came out at 71%.
`N#Cc1cc(-c2nc3cncnc3s2)ccc1Sc1cccc(F)c1` [Example 19, 2-[3-Cyano-4-(3-fluorophenylthio)phenyl]-thiazolo[5,4-d]pyrimidine] showed a melting point of 189 to 190 °C. Moreover, in data set [2], the “In Vivo (%) TMX-67 (0.3 mg/kg)” value is reported as 171%.
Turning to `N#Cc1cc(-c2nc3cncnc3s2)ccc1Oc1ccccc1N` [Example 20, 2-[4-(2-Aminophenoxy)-3-cyanophenyl]thiazolo[5,4-d]-pyrimidine], the melting point was 256 to 259 °C (dec.). In data set [1], the IC50 came out at 58 nM.
Molecule `Cl.N#Cc1cc(-c2nc3cncnc3s2)ccc1Oc1cccnc1` [Example 21, 2-[3-Cyano-4-(3-pyridyloxy)phenyl]thiazolo-[5,4-d]pyrimidine hydrochloride] showed a melting point of 204 to 206 °C. In addition, in data set [2], the “In Vivo (%) TMX-67 (0.3 mg/kg)” value is on record as 68%.
In the case of `N#Cc1cc(-c2nc3cncnc3s2)ccc1Oc1ccc(O)cc1` [Example 22, 2-[3-Cyano-4-(4-hydroxyphenoxy)phenyl]thiazolo[5,4-d]pyrimidine], the melting point is > 250 °C. For the same molecule, the IC50 in data set [1] came out at 72 nM.
Consider `N#Cc1cc(-c2nc3cncnc3s2)ccc1Oc1ccc(O)cc1.[K]` [Example 25, 2-[3-Cyano-4-(4-hydroxyphenoxy)phenyl]thiazolo[5,4-d]pyrimidine potassium salt], for which the “In Vivo (%) TMX-67 (0.3 mg/kg)” value in data set [2] was 35%.

What is called IC50 is the midpoint of a concentration-inhibition curve. A lower IC50 goes with greater potency in that assay. A word on the melting point: it is the temperature, or range, at which the solid turns liquid.
